SMILES strings stand for the structures. Where a name gives a salt, the structure may show the parent alone.

Arginase-1, sequence (P05089 whole entry, species assumed): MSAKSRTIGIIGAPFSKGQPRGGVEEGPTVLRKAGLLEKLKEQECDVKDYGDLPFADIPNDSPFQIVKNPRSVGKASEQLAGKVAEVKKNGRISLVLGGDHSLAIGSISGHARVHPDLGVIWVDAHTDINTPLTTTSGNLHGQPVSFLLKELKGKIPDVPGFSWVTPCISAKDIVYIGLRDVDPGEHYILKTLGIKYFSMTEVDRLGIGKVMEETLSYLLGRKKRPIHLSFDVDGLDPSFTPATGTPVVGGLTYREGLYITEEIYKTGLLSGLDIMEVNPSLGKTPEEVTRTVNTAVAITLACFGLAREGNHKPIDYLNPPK

The first assay addresses Arginase-1 (Homo sapiens (Human), UniProt P05089). In words: Arginase inhibitory activity test. The class given is biochemical. The note with it: Arginase-1, L-arginine substrate, absorbance at 450 nm. As for the experimental part: An arginase inhibitory activity test was conducted for the compound according to the present disclosure.
Specifically, all reagents required for evaluation were diluted in a reaction buffer (8 mM NAHPO4, 2 mM KH2PO4, pH 7.5, 137 mM NaCl, 2.7 mM KCl, and 0.05% Tween-20), and the compound was dissolved in DMSO and then diluted, and then diluted in the reaction buffer to conform to the desired concentration. 10 μL of the compound and 10 μL of 30 nM Arginase-1 were mixed in a transparent 96-well plate (SPL), and incubated at room temperature for 1 hour or more. After that, 10 μL of 15 mM L-arginine and 3 mM MnCl2 were added to the plate, and then reacted at room temperature for 30 minutes or more. Finally, 30 μL of a 1:1 mixture of reagent A (10 mM o-phthaldialdehyde, 0.4% polyoxyethylene lauryl ether, and 1.8M sulfuric acid in DW) and reagent B (1.3 mM primaquine diphosphate, 0.4% polyoxyethylene lauryl ether, and 3.6 M sulfuric acid in DW) was added to complete the enzyme reaction, and incubated at room temperature for 1 hour or more. The plate after incubation was measured for absorbance at 450 nm using a Flexstation3 multi-mode microplate reader (Molecular Devices).
The background control (BC) reading value was subtracted from all reading values to obtain the ΔOD for each reading value. The ΔOD of the enzyme control (EC) was set to the maximum value, and the % relative Arginase-1 activity of each compound (S) was calculated using the following Equation, and the IC50 value of the compound was determined using PRISM (GraphPad software).
Turning to `O=C([C@@H]1CCCN1)N1CC[C@H]2[C@@H]1CN[C@@]2(CCCCB(O)O)C(=O)O` [Example 4, (3aS,4R,6aR)-4-(4-boronobutyl)-1-((S)-pyrrolidine-2-carbonyl)octahydropyrrolo[3,4-b]pyrrole-4-carboxylic acid dihydrochloride], the 50% inhibitory concentration (IC50) (as a rule, the point on the concentration scale where inhibition reaches its midpoint) was in the range of 100 to 1000 nM. In the case of `CN1CC[C@H]2[C@@H]1CN[C@@]2(CCCCB(O)O)C(=O)O` [Example 27, (3aS,4R,6aR)-4-(4-boronobutyl)-1-methyloctahydropyrrolo[3,4-b]pyrrole-4-carboxylic acid hydrochloride], the IC50 was less than 100 nM.

`C[C@H](N)C(=O)N1CC[C@H]2[C@@H]1CN[C@@]2(CCCCB(O)O)C(=O)O` [Example 2, (3aS,4R,6aR)-1-((S)-2-aminopropanoyl)-4-(4-boronobutyl)octahydropyrrolo[3,4-b]pyrrole-4-carboxylic acid dihydrochloride]: the IC50 is 100 to 1000 nM. The compound `CNCCN1CC[C@H]2[C@@H]1CN[C@@]2(CCCCB(O)O)C(=O)O` [Example 28, (3aS,4R,6aR)-4-(4-boronobutyl)-1-(2-(methylamino)ethyl)octahydropyrrolo[2,3-c]pyrrole-4-carboxylic acid hydrochloride] displayed a half-inhibitory concentration (IC50) of 100 to 1000 nM. For the compound `CC(C)[C@H](N)C(=O)N1CC[C@H]2[C@@H]1CN[C@@]2(CCCCB(O)O)C(=O)O` [Example 6, (3aS,4R,6aR)-1-((S)-2-amino-3-methylbutanoyl)-4-(4-boronobutyl)octahydropyrrolo[3,4-b]pyrrole-4-carboxylic acid dihydrochloride], the half-maximal inhibitory concentration (IC50) is more than 1000 nM. On the same count and under the same terms, the same measure for `C[C@@H](N)C(=O)N1CC[C@H]2[C@@H]1CN[C@@]2(CCCCB(O)O)C(=O)O` [Example 9, (3aS,4R,6aR)-1-((R)-2-aminopropanoyl)-4-(4-boronobutyl)octahydropyrrolo[3,4-b]pyrrole-4-carboxylic acid dihydrochloride]: more than 1000 nM; for `O=C(O)[C@]1(CCCCB(O)O)NC[C@@H]2NCC[C@@H]21` [Example 1, (3aS,4R,6aR)-4-(4-boronobutyl)octahydropyrrolo[3,4-b]pyrrole-4-carboxylic acid dihydrochloride]: less than 100 nM. Turning to `CC(C)C[C@H](N)C(=O)N1CC[C@H]2[C@@H]1CN[C@@]2(CCCCB(O)O)C(=O)O` [Example 7, (3aS,4R,6aR)-1-((S)-2-amino-4-methylpentanoyl)-4-(4-boronobutyl)octahydropyrrolo[3,4-b]pyrrole-4-carboxylic acid dihydrochloride], the half-inhibitory concentration (IC50) is more than 1000 nM. Compound `N[C@@H](Cc1ccccc1)C(=O)N1CC[C@H]2[C@@H]1CN[C@@]2(CCCCB(O)O)C(=O)O` [Example 3, (3aS,4R,6aR)-1-((S)-2-amino-3-phenylpropanoyl)-4-(4-boronobutyl)octahydropyrrolo[3,4-b]pyrrole-4-carboxylic acid dihydrochloride] showed an IC50 of 100 to 1000 nM. Compound `C[C@H](O)[C@@H](N)C(=O)N1CC[C@H]2[C@@H]1CN[C@@]2(CCCCB(O)O)C(=O)O` [Example 5, (3aS,4R,6aR)-1-((2R,3S)-2-amino-3-hydroxybutanoyl)-4-(4-boronobutyl)octahydropyrrolo[3,4-b]pyrrole-4-carboxylic acid dihydrochloride] had an IC50 of 100 to 1000 nM.

In a further assay the test system is Primary Peripheral Blood Mononuclear Cells (PBMC). In words: PBMC activity evaluation test (T cell proliferation suppressed by synthetic arginase 1, CellTiter-Glo). The class given is cell-based. Particulars: PBMC with α-CD3/α-CD28 antibodies and synthetic arginase 1, 72 hours, CellTiter-Glo luminescence; read-out: EC50. Here is the method:
A Primary Peripheral Blood Mononuclear Cells (PBMC) activity test was performed for the compound according to the present disclosure. […] To evaluate the proliferation of T cells, the CellTiter-Glo® Luminescent Cell Viability (Promega, Catalog #G7571) evaluation method was used, which can confirm the proliferation of cells by quantifying the ATP present in the cells. In addition to the compound according to the present disclosure, the compound CB-1158 (Numidargistat) was also tested together for comparison.
Specifically, α-CD3 antibody was coated on a clear 96-well microplate. 1×10^5 PBMC cells were placed in each well. RPMI media (10% FBS, 1% penicillin/streptomycin) was used as the cell culture medium. α-CD28 antibody and synthetic arginase 1 were added to each well. The compounds prepared in Examples were treated at different concentrations (2, 1, 0.5, 0.25, 0.125, 0.0625, 0.03125 μM). After incubating for 72 hours, 50 μL of cells from each well were transferred to a white 96-well microplate, and mixed with 50 μL of CellTiter-Glo® solution.
After performing the reaction at room temperature for 10 minutes in the state where light was blocked, the luminescence was measured. The measurement results for each compound were calculated using Excel, and the EC50 value was calculated using GraphPad Prism software.
Take `O=C(O)[C@]1(CCCCB(O)O)NC[C@@H]2NCC[C@@H]21` [Example 1, (3aS,4R,6aR)-4-(4-boronobutyl)octahydropyrrolo[3,4-b]pyrrole-4-carboxylic acid dihydrochloride]: the EC50 (in general, the concentration that produces a half-maximal response) was less than 100 nM.

The assay is the same for the next values; noted with them: PBMC, 72 h.
As to `C[C@H](N)C(=O)N1C[C@H](CCCB(O)O)[C@](N)(C(=O)O)C1` [CB-1158 (Numidargistat), Numidargistat, reference compound], the EC50 lay in the range of 100 to 500 nM.
